Assay results reported in article PMC11758220, “Identification of a Privileged Scaffold for Inhibition of Sterol Transport Proteins through the Synthesis and Ring Distortion of Diverse, Pseudo-Natural Products” (ACS Central Science, 2025).

How the values were obtained:
Type in all cases: binding
Aster-C = biological target: T1, Aster-C (Homo sapiens, UniProt Q8IYS0); test: Fluorescence polarisation (FP) competition with NBD-cholesterol, Aster-C; conditions: for IC50: mean of three experiments run in technical duplicates; for inhibition at 10 µM / Aster-C (FP) inhibition: single dose, Dose = 10 µM
T1 construct: -C(318-504); GST (PreScission-cleavable) (N, cleaved yes); made in house; host or cells: E. coli OverExpress C41
T1 sequence (Q8IYS0 318-504): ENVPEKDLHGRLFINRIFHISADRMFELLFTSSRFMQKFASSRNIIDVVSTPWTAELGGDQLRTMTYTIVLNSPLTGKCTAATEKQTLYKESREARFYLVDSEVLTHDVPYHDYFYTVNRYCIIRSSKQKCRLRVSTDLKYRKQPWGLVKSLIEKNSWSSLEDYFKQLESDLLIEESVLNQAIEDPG
Source text: (§1) Protein expression constructs
(§2) Human ASTER domains of Aster-A(359-547), -B(364-552) and -C(318-504) were subcloned into a pGEX-6p-2rbs vector, thus introducing the cloning artifact ‘GPLGS’.3 The pGEX-6P-1-GST-OSBP(377- […]
(§3) a gift from James H. Hurley (University of California).4 The pHIS_2His6_Thrombin_STARD4(2-205;C75S) plasmid was a gift from Young Jun Im (Chonnam National University).5 STARD5A was a gift from Nicola Burgess-Brown (Addgene plasmid #42392; http://n2t.net/addgene:42392; […]
(§4) Protein expression and purification […]
(§5) vectors including an N-terminal PreScission-cleavable glutathione S-transferase (GST)-tag were expressed in Escherichia coli (E. coli) OverExpress C41 in Terrific Broth (TB) medium for 16 h at 18 °C after the induction with 0.1 mM isopropyl β-D-1-thiogalactopyranoside (IPTG). Cells were harvested at 3500 × g for 15 minutes and lysed by sonication in buffer containing 50 mM HEPES pH 7.5, 300 mM NaCl, 10 %v/v glycerol, 5 mM dithiothreitol (DTT), 0.1 %v/v Triton X-100 and protease inhibitor mix HP plus (Serva). The lysate was purified by affinity chromatography on a GSTrap FF column (Cytiva) using an ÄKTA Start (Cytiva) in buffer containing 50 mM HEPES pH 7.5, 300 mM NaCl, 10 %v/v glycerol, 5 mM DTT and 0.01 %v/v Triton X-100. The GST-tag was cleaved overnight on the column at 4 °C. The Aster sterol binding domains were further purified by size-exclusion chromatography (SEC) on a HiLoad 16/600 Superdex 75 pg (Cytiva) in buffer containing 20 mM HEPES pH 7.5, 300 mM NaCl, 10 %v/v […]
(§6) STARD5(6-213) harboring an N-terminal His6-Tag were expressed in E. coli BL21(DE3) in Luria-Bertani Broth (LB) medium for approximately 16 h at 18 °C after induction with 0.15 mM IPTG. Cells were harvested at 3500 × g for 15 minutes and lysed by sonication in buffer containing 50 mM HEPES pH 7.5, 150 mM NaCl, 5 %v/v glycerol, 5 mM DTT, 0.1 %v/v Triton X -100 and ethylenediaminetetraacetic acid (EDTA)-free protease inhibitor cocktail (Sigma-Aldrich). The cleared lysate was purified by affinity chromatography on a Ni-NTA Superflow Cartridge (Qiagen) using an ÄKTA Start (Cytiva) in buffer containing 50 mM HEPES pH 7.5, 150 mM NaCl, 5 %v/v glycerol, 5 mM DTT. START domains were eluted by using elution buffer containing 50 mM HEPES pH 7.5, 150 mM NaCl, 5 %v/v glycerol, 5 mM DTT and 500 mM imidazole. Proteins were further purified by SEC on a HiLoad 16/600 Superdex 75 pg (Cytiva) in buffer containing 20 mM HEPES pH 7.5, 150 mM NaCl, 5 %v/v glycerol and 2 mM DTT.
(§7) The ORP domain of human OSBP(377-807) in the pGEX-6p-1 vector with an N-terminal PreScission-cleavable GST-tag was expressed in E. coli OverExpress C41 in LB medium for 16 h at 18 °C after induction with 0.1 mM IPTG. Cells were harvested at 3500 × g for 15 minutes and lysed by sonication in buffer containing 20 mM HEPES pH 7.5, 300 mM NaCl, 10 %v/v glycerol, 5 mM DTT, 0.1 %v/v Triton X-100 and EDTA-free protease inhibitor cocktail (Sigma-Aldrich). The cleared lysate was purified by affinity chromatography on a GSTrap HF column (Cytiva) using an ÄKTA Start (Cytiva) in buffer containing 20 mM HEPES pH 7.5, 300 mM NaCl, 10 %v/v glycerol, 5 mM DTT. OSBP(377 -807) was eluted by using elution buffer containing 20 mM HEPES pH 7.5, 300 mM NaCl, 10 %v/v glycerol, 5 mM DTT and 10 mM reduced glutathione. Proteins were further purified by SEC on a HiLoad 16/600 Superdex 75 pg (Cytiva) using an ÄKTA Explorer (Cytiva) in buffer containing 20 mM HEPES pH 7.5, 150 mM NaCl, 10 %v/v glycerol and 2 mM DTT.
(§8) The ORP domains of human ORP1(534-950) in pET24b(+) and ORP2(49-480) in the pET24b(+) vector including an N-terminal His6-Tag were expressed in E. coli BL21(DE3) in TB medium for approximately 16 h at 18 °C after induction with 0.1 mM IPTG. Cells were collected at 3500 × g for 15 minutes and lysed by sonification in buffer containing 10 mM Tris-HCl pH 8, 300 mM NaCl, 5 % glycerol, 2 mM DTT, 0.1 % Triton X-100 and EDTA-free protease inhibitor cocktail (Sigma-Aldrich). The cleared […]

ORP1 = biological target: T2, ORP1 (Homo sapiens, UniProt Q9BXW6); test: Fluorescence polarisation (FP) competition with NBD-cholesterol, ORP1; conditions: for IC50: mean of three experiments run in technical duplicates; for inhibition at 10 µM / ORP1 (FP) inhibition: single dose, Dose = 10 µM
T2 construct: ORP1(534-950); host or cells: E. coli BL21(DE3)
T2 sequence (Q9BXW6 534-950): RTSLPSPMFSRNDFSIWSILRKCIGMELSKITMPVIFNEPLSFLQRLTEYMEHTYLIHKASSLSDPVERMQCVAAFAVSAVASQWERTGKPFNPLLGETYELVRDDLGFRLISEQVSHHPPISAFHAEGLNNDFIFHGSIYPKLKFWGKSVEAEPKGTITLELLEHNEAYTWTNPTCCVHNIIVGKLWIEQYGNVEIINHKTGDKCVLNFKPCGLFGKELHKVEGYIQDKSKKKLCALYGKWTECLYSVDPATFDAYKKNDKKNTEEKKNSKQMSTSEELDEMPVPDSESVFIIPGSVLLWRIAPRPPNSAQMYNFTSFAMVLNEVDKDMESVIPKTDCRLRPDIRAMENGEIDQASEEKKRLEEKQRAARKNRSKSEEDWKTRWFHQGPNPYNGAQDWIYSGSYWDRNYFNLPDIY
Source text: as §1, §2, §3, §4, §5, §6, §7, §8

STARD4 = biological target: T3, STARD4 (Homo sapiens, UniProt Q96DR4, C75S); test: Differential scanning fluorimetry (DSF), STARD4; conditions: for ΔTm at 10 µM / STARD4 (DSF) ΔTm: single dose, Dose = 10 µM; for Kd: apparent Kd, mean of three experiments run in technical duplicates, read-out: STARD4 Kd,app (DSF); for STARD4 (DSF) ΔTmmax: maximal thermal shift
T3 construct: STARD4(2-205; C75S); made in house; host or cells: E. coli BL21(DE3)
T3 sequence (Q96DR4 2-205 C75S): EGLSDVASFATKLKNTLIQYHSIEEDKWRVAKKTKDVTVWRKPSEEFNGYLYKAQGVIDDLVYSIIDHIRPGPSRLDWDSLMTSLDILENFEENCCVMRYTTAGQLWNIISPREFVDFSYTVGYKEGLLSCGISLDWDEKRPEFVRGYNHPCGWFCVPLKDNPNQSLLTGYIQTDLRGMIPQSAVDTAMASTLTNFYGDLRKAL
Source text: as §1, §2, §3, §4, §5, §6, §7, §8

Row | SMILES | IC50 (Aster-C) | inhibition at 10 µM (Aster-C) | IC50 (ORP1) | inhibition at 10 µM (ORP1) | ΔTm at 10 µM (STARD4) | Kd (STARD4) | STARD4 (DSF) ΔTmmax (STARD4) | Aster-C (FP) inhibition (Aster-C) | ORP1 (FP) inhibition (ORP1) | STARD4 (DSF) ΔTm (STARD4)
1 | C[C@]12CC[C@@H]3C[C@H]1CC[C@@]21C(=Nc2ccc(Br)cc21)O3 (racemic) [Compound 15b] | > 80 µM | -1.6% | 20.9 µM | 60% | 1.5 °C |  |  |  |  | 
2 | CC12CCC3CC1CCC21C(=Nc2ccc(N4CCOCC4)cc21)O3 (racemic) [Compound 19a] | > 80 µM | -5% | > 80 µM | 0% | 0.851 °C | > 30 µM | 1.1 °C |  |  | 
3 | CC12CCC3CC1CCC21C(=Nc2ccc(Br)cc21)O3 (single isomer, unassigned; (+)) [(+)-15b] | > 80 µM | 0% | > 80 µM | 0% | 0.0899 °C | 7.89 µM | 1.4 °C |  |  | 
4 | CC12CCC3CC1CCC21C(=Nc2ccc(N4CCOCC4)cc21)O3 (single isomer, unassigned; (+)) [(+)-19a] | > 80 µM |  | > 80 µM |  |  | > 50 µM | 1.1 °C | -0.8% | -3.3% | 0.4 °C
5 | CC12CCC3CC1CCC21C(=Nc2ccc(N4CCOCC4)cc21)O3 (single isomer, unassigned; (-)) [(−)-19a] | > 80 µM |  | > 50 µM |  |  | > 30 µM | 1.3 °C | -1.6% | 15.0% | 1.3 °C
6 | C[C@@]12CC[C@H]3C[C@@H]1CC[C@]21C(=Nc2ccc(Br)cc21)O3 [(−)-15b] | > 80 µM | -0.8% | 15.3 µM | 68.3% | 0.324 °C | 6.04 µM | 3.6 °C |  |  | 
7 | CC(C)Oc1ccc(C(=O)Nc2nc3c(s2)CN(C(=O)OC(C)(C)C)CC3)cc1 [Autogramin-2, reference compound] | > 80 µM |  | 4.26 µM |  |  | > 30 µM |  | -1.6% | 57.5% | 0.2 °C
8 | Cc1c2c(nc3ccccc13)[C@@]1(C)CC[C@@H](O)C[C@H]1CC2 [Compound 2a] |  | -2.4% |  | 53.3% | -0.141 °C |  |  |  |  | 
9 | C[C@]12CC[C@@H](O)C[C@H]1CCc1c2nc2ccccc2c1-c1ccccc1 [Compound 2b] |  |  |  |  |  |  |  | -5.6% | 11.7% | -0.0888 °C
10 | Cc1c2c(nc3cc(Br)ccc13)[C@@]1(C)CC[C@@H](O)C[C@H]1CC2 [Compound 2c] |  |  |  |  |  |  |  | -1.6% | 81.7% | 0.0489 °C
11 | C[C@]12CC[C@@H](O)C[C@H]1CCc1c2nc2ccccc2c1-c1ccc(F)cc1 [Compound 2d] |  | -2.4% |  | 5% | -0.177 °C |  |  |  |  | 
12 | C[C@]12CC[C@@H](O)C[C@H]1CCc1c2nc2ccc(Cl)cc2c1-c1ccccc1 [Compound 2e] |  |  |  |  |  |  |  | -5% | 2.5% | -0.00387 °C
13 | C[C@]12CC[C@@H](O)C[C@H]1CCc1c2[nH]c2ncccc12 [Compound 3] |  | -3.2% |  | -5.8% | -0.021 °C |  |  |  |  | 
14 | C[C@]12CC[C@@H](O)C[C@H]1CCC[C@]21Nc2ccccc2-n2cccc21 [Compound 4] |  |  |  | 5.8% | 0.6 °C |  |  | -5.6% | 30.0% | 0.7 °C
15 | C[C@]12CC[C@@H](O)C[C@H]1CCC[C@]21NC(=O)c2ccccc2N1 [Compound 5a] |  | 0% |  | -2.5% | -0.124 °C |  |  | -4% | 0.0% | -0.0769 °C
16 | C[C@]12CC[C@@H](O)C[C@H]1CCC[C@]21NC(=O)c2ccc(F)cc2N1 [Compound 5b] |  | -1.6% |  |  | -0.0901 °C |  |  | -4% | -7.5% | 0.027 °C
17 | COc1ccc2c(c1)C(=O)N[C@]1(CCC[C@@H]3C[C@H](O)CC[C@@]31C)N2 [Compound 5c] |  |  |  | 3.3% | -0.0676 °C |  |  | -3.2% | -5.0% | -0.0518 °C
18 | C[C@]12CC[C@@H](O)C[C@H]1CCc1nc3ccccc3nc12 [Compound 7a] |  | 19% |  | 16.7% | 0.0574 °C |  |  |  |  | 
19 | Cc1cc2nc3c(nc2cc1C)[C@@]1(C)CC[C@@H](O)C[C@H]1CC3 [Compound 7b] |  | 0.8% |  | 0% | 0.27 °C |  |  |  |  | 
20 | C[C@]12CC[C@@H](O)C[C@H]1CCc1nc3cc(F)c(F)cc3nc12 [Compound 7c] |  |  |  |  |  |  |  | -4% | -5.0% | 0.0575 °C
21 | C[C@]12CC[C@@H](O)C[C@H]1CCc1nc3cc(Cl)c(Cl)cc3nc12 [Compound 7d] |  |  |  |  |  |  |  | -4% | 1.7% | -0.111 °C
22 | C[C@]12CC[C@@H](O)C[C@H]1CCc1nc3cc(Br)c(Br)cc3nc12 [Compound 7e] |  |  |  |  |  |  |  | 1.6% | 5.0% | 0.0567 °C
